Data on 13 compounds can be found in patent US20200121620A1, “SENOLYTIC COMPOUNDS” (UNITED KINGDOM RESEARCH AND INNOVATION, priority 2017, published 2020).

Data set [1] concerns IMR90 ER:RAS cells. The experiment in a line: Senolytic activity in IMR90 ER:RAS cells undergoing oncogene-induced senescence (4OHT) vs DMSO-treated non-senescent cells. To be noted: for ability of FAK inhibitors to kill differentially senescent cells (4OHT induced) vs non-senescent cells (DMSO treated): FIG. 12; for death of cells undergoing oncogene induced senescence: 100 nM 4OHT, treated 6 days after induction at indicated concentrations, FIG. 18; for senolytic properties: selective reduction of senescent (+4OHT) vs normal (−4OHT) cell numbers: 10 μM added 6 days after 100 nM 4OHT, cell numbers 4 days after (DAPI or crystal violet), FIG. 1, FIG. 10.
Method: FIG. 1: (A) IMR90 ER:RAS cells were induced to undergo senescence by treating them with 100 nM 4OHT for 6 days. At that point, 10 μM of the indicated drugs was added. In parallel, the same treatments were carried out in IMR90 ER:RAS cells treated with DMSO (−4OHT). […] Cells were fixed at day 6, 8 and 10 after 4OHT induction and stained with crystal violet to assess cell viability. T, Tyr-AG879; P, PF-573228; C, Cyclosporine. (B) A similar experiment to (A) was conducted and cells at day 10 post-induction were fixed and stained with DAPI to assess cell numbers
In the setup used, IMR90 ER:RAS cells were treated with 100 nM 4OHT to induce OIS (oncogene induced senescence) and activate the ER:RAS fusion protein. 6 days after 4OHT induction (+4OHT), once cells were fully senescent, the agents to be tested were added at a concentration of 10 μM, and cell numbers were assessed 4 days after by DAPI stained couple to automated microscopy. Alternatively, cells were fixed and stained with crystal violet. In parallel, the same treatments were carried out in IMR90 ER:RAS cells treated with DMSO (−4OHT).
IMR90 ER:RAS cells were induced to undergo senescence by treating them with 100 nM 4OHT for 6 days. At that point, 10 μM of the indicated drugs was added. In parallel, the same treatments were carried out in IMR90 ER:RAS cells treated with DMSO (−4OHT). […] Cells were fixed at day 6, 8 and 10 after 4OHT induction and stained with crystal violet to assess cell viability. A similar experiment was conducted and cells at day 10 post-induction were fixed and stained with DAPI to assess cell numbers (see FIG. 1).

The subject of data set [2] is senescent cells in the lung. The experiment in a line: Elimination of senescent cells induced by Doxorubicin treatment in mice. In kind it is in vivo. To be noted: single dose 10 mg/kg Doxorubicin; 2 months later treated for 4 consecutive days; FIG. 15. Here is the method:
(A) Experimental set up, mice (n=5 per group) were administered with a single dose of 10 mg/kg of Doxorubicin. […] (B) Cryosections of lungs obtained from control and doxorubicin treated mice were stained with hematoxilin and eosin (to reveal tissue architecture), and SA-β-Gal (to reveal senescent cells). Senescent cells accumulate in the bronchioles of doxorubicin-treated mice. (C) Quantification of the lung area positive for SA-β-Gal staining. […] (D) Representative pictures of lung cryosections.
Further experiments investigated whether the senolytic agents were capable of eliminating senescent cells in vivo. […] These senescent cells are responsible for some of the side-effects associated with chemotherapy and can fuel the growth of cancerous cells (Demaria et al., 2016). […] Doxorubicin treatment induces senescence in the lung.

Data set [3] deals with senescent cells in the lung. Briefly: Elimination of senescent cells induced by whole body irradiation in mice. Format: in vivo. To be noted: 6 Gray whole body irradiation; 2 months later treated for 4 consecutive days; FIG. 16. The text has this:
(A) Experimental set up, mice (n=5 per group) were irradiated with 6 Gray to induce senescence. […] (B) Cryosections of lungs obtained from control and irradiated mice were stained with hematoxilin and eosin (to reveal tissue architecture), and SA-β-Gal (to reveal senescent cells). Senescent cells accumulate in the bronchioles of irradiated mice. (C) Quantification of the lung area positive for SA-β-Gal staining. […] (D). Representative pictures of lung cryosections.
Whole-body irradiation is known to cause senescence. In irradiated mice, senescent cells accumulate in different tissues, including the lung (Chang et al., 2016; Yosef et al., 2016).

The test system of data set [4] is IMR90 cells undergoing OIS. Briefly: Western blot of cleaved caspase 3 in IMR90 cells undergoing OIS. In kind it is cell-based, human. To be noted: FIG. 17. The text has this:
Western blot showing cleaved caspase 3 upon treatment of IMR90 cells undergoing OIS with cardiac glycosides.
Background: A western blot detects proteins with antibodies after separation by electrophoresis.

For another data set, the system named is old mice. Briefly: Intermittent ouabain treatment of old mice (ageing experiment). Format: in vivo. Here is the method: (A) 24 month old female mice were subjected to the schedule summarized in this panel. […] (B) Results of rotarod test that assess the physical fitness and coordination of mice. Left bar=saline, right bar=Ouabain.
The concentrations of Albumin (A), Amylase (B) and PHOS (C) on plasma were measured in mice from the aging experiment described in FIG. 21A. 90 days old female mice were included as a comparison (young).

The test system of data set [5] is Nras^G12V-positive senescent hepatocytes. The experiment in a line: Model of liver cancer initiation (NrasG12V hydrodynamic tail vein injection). In kind it is in vivo. To be noted: CB17 SCID/beige mice, 1 mg/kg ip for 3 days from day 5, livers day 9. The text has this:
(A) CB17 SCID/beige mice immunosuppressed mice were subjected to hydrodynamic tail vein injection to express NrasG12V on the liver and induce oncogene-induced senescence on hepatocytes as described in Kang et al (Nature 2011, PMID: 22080947).

For data set [6] the following is noted: cited from earlier work.
The conditions of data set [7]: in vivo; cited from earlier work.
Data set [8] deals with IMR90 ER:RAS cells. The experiment in a line: Senolysis in presence or absence of pan-caspase inhibitor QVD (apoptosis). Format: cell-based, human. To be noted: 2 or 3 days treatment, with or without QVD; FIG. 13. Here is the method:
FIG. 13: Several of the senolytic agents kill senescent cells by inducing apoptosis. […] Consequently cells were treated with DMSO, ABT-263 or the indicated senolytics for 2 (A) or 3 days (B) in the presence (right bar) or absence (left bar) of the pan-caspase inhibitor QVD. Treatment of senescent cells with senolytics kills them, but is prevented in the case of PF-573228, rottlerin and rotenone by pre-treatment with the pan-caspase inhibitor QVD. ABT, ABT-263; PF, PF-573228; JFD, JFD 00244; DPI, diphenyleneiodonium.
Experiments were conducted to investigate the mechanism by which the senolytics caused the elimination of senescent cells using a pan-caspase inhibitor (QVD).
Several of the agents described herein kill senescent cells by inducing apoptosis. […] Consequently, cells were treated with DMSO, ABT-263 or the indicated senolytics for 2 (A) or 3 days (B) in the presence or absence of the pan-caspase inhibitor QVD. Treatment of senescent cells with senolytics kills them, but is prevented in the case of PF-573228, rottlerin and rotenone by pre-treatment with the pan-caspase inhibitor QVD (see FIG. 13).

For data set [9], the system named is IMR90 Cherry and IMR90 ER:RAS GFP cells. The experiment in a line: Mixed cultures of normal (IMR90 Cherry) and senescent (IMR90 ER:RAS GFP) cells. Format: cell-based, human. To be noted: IMR90 Cherry mixed with IMR90 ER:RAS GFP, 4OHT; FIG. 14. The text has this:
FIG. 14: Senolytic agents JFD 00244 and Rottlerin specifically eliminate senescent cells in mixed cultures containing normal and senescent cells. (A) Setup of the experiments, in which normal cells (IMR90 Cherry) are mixed with IMR90 ER:RAS GFP cells (which become senescent in the presence of 4OHT). (B) Representative pictures showing the mixed cultures treated with the indicated drugs. In the bottom row, upon 4OHT the IMR90 ER:RAS GFP cells are senescent. (C) Quantification of the IMR90 Cherry (left bar) and IMR90 ER:RAS GFP (right bar) in the mixed cultures.
The above experiments were all performed comparing the effects of the drugs in cultures of normal and senescent cells. To understand whether the drugs selectively kill senescent cells from a mixed culture, experiments were conducted using Cherry-labelled normal IMR90 cells and GFP labelled IMR90 ER:RAS cells that could be induced to undergo senescence upon treatment with 4OHT (FIG. 14A).
Compounds JFD 00244 and Rottlerin specifically eliminate senescent cells in mixed cultures containing normal and senescent cells (see FIG. 14). (A) Setup of the experiments, in which normal cells (IMR90 Cherry) are mixed with IMR90 ER:RAS GFP cells (which become senescence in the presence of 4OHT). […] (C) Quantification of the IMR90 Cherry and IMR90 ER:RAS GFP in the mixed cultures.

Counter-ions that a name gives are not always drawn.

`Nc1cc(N)c(N)cc1N` [NSC 677249, 1,2,4,5- Benzenetetramine tetrahydrochloride]: the “ability of FAK inhibitors to kill differentially senescent cells (4OHT induced) vs non-senescent cells (DMSO treated)” value in the data set on IMR90 ER:RAS cells [1] is given as “preferentially kill senescent cells in a dose-dependent manner”.
Consider `C[C@]12CC[C@H](O)C[C@H]1CC[C@@H]1[C@@H]2CC[C@]2(C)[C@@H](c3ccc(=O)oc3)CC[C@]12O` [Bufalin, (3β,5β)-3,14-Dihydroxybufa-20,22-dienolide], for which the “death of cells undergoing oncogene induced senescence” value (“death” below) with IMR90 ER:RAS cells [1] was “dose-dependent death of cells undergoing oncogene induced senescence”.
Consider `C[C@@H]1O[C@@H](O[C@H]2C[C@@H](O)[C@]3(CO)[C@H]4[C@H](O)C[C@]5(C)[C@@H](C6=CC(=O)OC6)CC[C@]5(O)[C@@H]4CC[C@]3(O)C2)[C@H](O)[C@H](O)[C@H]1O` [Ouabain], for which the “lung area positive for SA-β-Gal staining (senescent cells)” value in data set [2] and in [3] was “partially eliminated” throughout. For the same compound, the “cleaved caspase 3 (apoptosis in senescent cells)” value in data set [4] is “induces apoptosis in senescent cells”. Moreover, the “rotarod test (physical fitness and coordination)” value in the data set on old mice (24 month old female mice, 1 mg/kg ip, 3 consecutive days on treatment weeks, FIG. 21) is listed as “improves the physical fitness of old mice”. For the same compound, in the data set on old mice (old mice of FIG. 21A vs young (90 days old), FIG. 22), the “concentrations of Albumin, Amylase and PHOS on plasma” value is “reverts ageing-associated changes of metabolites in blood”. For the same compound, the “SA-β-Gal positive cells in the liver” value with old mice (old mice, FIG. 24) is given as “decreased senescence-associated β-galactosidase positive cells in the liver”. Besides, the “expression of Cdkn2a mRNA (p16Ink4a)” value in the data set on old mice (qRT-PCR, liver, kidney and muscle of old female mice, FIG. 23) was “can be reduced after ouabain treatment”. The “SA-b-gal activity in liver” value in [5] (FIG. 25B) was “reduced”. Besides, the p21-positive cells result in [5] (FIG. 25C) is listed as “reduced”. Further, the Nras-positive preneoplastic hepatocytes entry in data set [5] (FIG. 25D) is given as “reduced”. Further, in the data set with IMR90 ER:RAS cells [1], the “death” value is “dose-dependent death of cells undergoing oncogene induced senescence”. Also, the “senolytic activity on adding KCl (increased intracellular K+)” value with IMR90 ER:RAS cells [1] (with KCl, FIG. 20A) is “prevented by increasing the intracellular K^+ concentration by adding KCl”. Also, the “senolytic activity on inhibition of p38” value with IMR90 ER:RAS cells [1] (with p38 inhibition, FIG. 20B) is reported as “partially prevents the senolytic properties of ouabain”.
For `CN(C)CC[C@H](CSc1ccccc1)Nc1ccc(S(=O)(=O)NC(=O)c2ccc(N3CCN(Cc4ccccc4-c4ccc(Cl)cc4)CC3)cc2)cc1[N+](=O)[O-]` [ABT-737], in data set [6], the solubility entry is on record as “low”. For the same compound, in data set [7], the oral bioavailability entry was “low”.
Regarding `C[C@H]1O[C@@H](O[C@H]2[C@@H](O)C[C@H](O[C@H]3[C@@H](O)C[C@H](O[C@H]4CC[C@@]5(C)[C@H](CC[C@@H]6[C@@H]5C[C@@H](O)[C@]5(C)[C@@H](C7=CC(=O)OC7)CC[C@]65O)C4)O[C@@H]3C)O[C@@H]2C)C[C@H](O)[C@@H]1O` [Digoxin], the “cleaved caspase 3 (apoptosis in senescent cells)” value in data set [4] is given as “induces apoptosis in senescent cells”. Further, in the data set with IMR90 ER:RAS cells [1], the “death” value is reported as “dose-dependent death of cells undergoing oncogene induced senescence”.
On to `CC(C)c1c(C(=O)Nc2ccccc2)c(-c2ccccc2)c(-c2ccc(F)cc2)n1CC[C@@H](O)C[C@@H](O)CC(=O)O` [Atorvastatin calcium], for which, in the data set on IMR90 ER:RAS cells [1] (4OHT vs DMSO, FIG. 11), the “senolytic effect of statins, preferential killing of cells undergoing OIS” value is “behaves as a senolytic in concentration dependent manner”.
In the case of Cyclosporine, the “senolytic properties: selective reduction of senescent (+4OHT) vs normal (−4OHT) cell numbers” value in the data set with IMR90 ER:RAS cells [1] is listed as “showed the most promising senolytic properties”.
`CNC(=O)c1ccc(Nc2ncc(C(F)(F)F)c(NCc3nccnc3N(C)S(C)(=O)=O)n2)cc1` [Defactinib]: the “ability of FAK inhibitors to kill differentially senescent cells (4OHT induced) vs non-senescent cells (DMSO treated)” value in the data set with IMR90 ER:RAS cells [1] is “preferentially kill senescent cells in a dose-dependent manner”.
As to `CC(=O)c1c(O)c(C)c(O)c(Cc2c(O)c3c(c(C(=O)/C=C/c4ccccc4)c2O)OC(C)(C)C=C3)c1O` [Rottlerin], in the data set on IMR90 ER:RAS cells [8], the “elimination of senescent cells with pan-caspase inhibitor QVD (apoptosis induction)” value is recorded as “selectively induce apoptosis of senescent cells”. In addition, in data set [9], the “selective elimination of senescent cells from mixed cultures” value is “selective elimination of senescent cells from the co-cultures”.
On to `CC(C)(C)c1cc(/C=C(\C#N)C(N)=S)cc(C(C)(C)C)c1O` [Tyrphostin AG879, (2E)-3-[3,5-Bis(1,1-dimethylethyl)-4-hydroxyphenyl]-2-cyano-2-propenethioamide], for which the “senolytic properties: selective reduction of senescent (+4OHT) vs normal (−4OHT) cell numbers” value in the data set with IMR90 ER:RAS cells [1] is “showed the most promising senolytic properties”.
Take `C=C(C)[C@H]1Cc2c(ccc3c2O[C@@H]2COc4cc(OC)c(OC)cc4[C@@H]2C3=O)O1` [Rotenone, (2R,6aS,12aS)-1,2,6,6a,12,12a-hexahydro-2-isopropenyl-8,9-dimethoxychromeno[3,4-b]furo(2,3-h)chromen-6-one]: the “elimination of senescent cells with pan-caspase inhibitor QVD (apoptosis induction)” value in the data set on IMR90 ER:RAS cells [8] is listed as “selectively induce apoptosis of senescent cells”.
Regarding `O=C1c2ccccc2C(=O)c2c(NCCc3ccc(O)cc3)ccc(NCCc3ccc(O)cc3)c21` [JFD00244, 1,4-Bis[(p-hydroxy-phenethyl)amino]-anthraquinone], the “selective elimination of senescent cells from mixed cultures” value in data set [9] was “selective elimination of senescent cells from the co-cultures”.
For `CS(=O)(=O)c1cccc(CNc2nc(Nc3ccc4c(c3)CCC(=O)N4)ncc2C(F)(F)F)c1` [PF-573228, 6-[4-(3-methyane-sulfonyl-benzyl-amino)-5-trifluoro-methyl-pyrimidin-2-ylamino]-3,4-dihydro-1H-quinolin-2-one], in the data set on IMR90 ER:RAS cells [8], the “elimination of senescent cells with pan-caspase inhibitor QVD (apoptosis induction)” value is “selectively induce apoptosis of senescent cells”. In the data set with IMR90 ER:RAS cells [1], the “senolytic properties: selective reduction of senescent (+4OHT) vs normal (−4OHT) cell numbers” value is listed as “showed the most promising senolytic properties” and the “ability of FAK inhibitors to kill differentially senescent cells (4OHT induced) vs non-senescent cells (DMSO treated)” value is reported as “preferentially kill senescent cells in a dose-dependent manner”.
